{"source": "patent US11359200B2", "about": "“Cancer treatment by MALAT1 inhibition” (THE CLEVELAND CLINIC FOUNDATION, priority 2017, dated 2022)", "key": {"[1]": {"system": "γH2A.X", "test": "Immunofluorescence staining and western blot for γH2A.X after MALAT1 knock-down", "type": "cell-based, Human", "details": "H929, MM.1S and RPMI8226 cells, 48 h after transfection", "method": "Protein was extracted from cells using RIPA buffer (Thermo Fisher Scientific) containing protease inhibitor cocktail (Roche) and phosphatase inhibitor cocktail (Thermo Fisher Scientific). Protein extracts were boiled in SDS/β-mercaptoethanol sample buffer, and 30 μg samples were loaded into each well on 4%-12% polyacrylamide gels (Thermo Fisher Scientific). The proteins were separated by electrophoresis, and the proteins in the gels were blotted onto PVDF membranes (Thermo Fisher Scientific) by electrophoretic transfer. […] The specific protein—antibody complex was detected with horseradish peroxidase-conjugated rabbit anti-mouse IgG. […]"}, "[2]": {"system": "MALAT1", "test": "MALAT1 knock-down in MM cells by qRT-PCR", "type": "cell-based, Human", "details": "H929, MM.1S and RPMI8226 cells, 48 h after transfection", "method": "(§1) For anti-MALAT1 transfection and ABT-888 (Santa Cruz Biotechnology Inc) or bortezomib (MilliporeSigma) treatment, MM cells were seeded on 12-well plates at a concentration of 5×10^5 cells/mL. The cells were transfected using Lipofectamine 2000 (Thermo Fisher Scientific) with 1 nM control or anti-MALAT1 oligos for 24 hours and then treated with a gradient concentration of ABT-888 or bortezomib for another 24 hours. Cells were subjected to proliferation and apoptosis assays, qRT-PCR, and immunoblotting.\nQuantitative RT-PCR (qRT-PCR) analysis was used to determine the relative expression level of MALAT1. Total RNA was extracted from cells or tissues using Trizol Reagent (Thermo Fisher Scientific) according to the manufacturer's instructions. After Turbo DNase (Thermo Fisher Scientific) treatment, 500 ng total RNA was subjected to reverse transcription using the RevertAid first-stand cDNA synthesis kit (Thermo Fisher Scientific). Quantitative PCR using SYBR Green PCR master mix (Thermo Fisher Scientific) was employed to determine MALAT1 level with PCR cycle conditions of 95° C. 10 min, 95° C. 15 s, and 60° C. 1 min, for 40 cycles. GAPDH was used as loading control."}, "[3]": {"target": "T1, PARP1 (Homo sapiens, UniProt P09874)", "T1 construct": "Protein was extracted from cells using RIPA buffer; endogenous in cells; host or cells: H929, MM.1S (human multiple myeloma cell lines, ATCC)", "test": "Immunoblotting after anti-MALAT1 and ABT-888 treatment", "type": "cell-based", "method": "(§2) Cells were subjected to proliferation and apoptosis assays, qRT-PCR, and immunoblotting.\n(§3) Protein was extracted from cells using RIPA buffer (Thermo Fisher Scientific) containing protease inhibitor cocktail (Roche) and phosphatase inhibitor cocktail (Thermo Fisher Scientific). Protein extracts were boiled in SDS/β-mercaptoethanol sample buffer, and 30 μg samples were loaded into each well on 4%-12% polyacrylamide gels (Thermo Fisher Scientific). The proteins were separated by electrophoresis, and the proteins in the gels were blotted onto PVDF membranes (Thermo Fisher Scientific) by electrophoretic transfer. […] The specific protein—antibody complex was detected with horseradish peroxidase-conjugated rabbit anti-mouse IgG. Detection by chemiluminescence reaction was carried using the SuperSignal West Femto Maximum Sensitivity Substrate kit (Thermo Fisher Scientific). β-actin was used as a loading control."}, "[4]": {"system": "BRCA1 and BRCA2", "test": "Immunoblotting of BRCA1 and BRCA2 after bortezomib treatment", "type": "cell-based, Human", "details": "H929, MM.1S and RPMI8226, high-dose bortezomib", "method": "as §2, §3"}, "[5]": {"system": "H929, MM.1S and RPMI8226 cells", "test": "MM cell apoptosis assay (annexin V/PI flow cytometry)", "type": "cell-based, Human", "details": "high-/low-dose bortezomib treatment", "method": "as §1\nAfter transfection of cells with anti-MALAT1 #1 or #2 and control, apoptosis was evaluated by assaying for annexin V. Cells were stained with APC Annexin V Apoptosis Detection Kit with PI (BioLegend), according to the manufacturer's instructions. Stained cells were analyzed using flow cytometry, and data were analyzed using Flowjo software (Ashland)."}, "[6]": {"system": "RPMI8226 cells", "test": "Cell viability assay, bortezomib with or without MALAT1 knockdown", "type": "cell-based", "details": "Homo sapiens, RPMI-8226, third cell line (RPMI8226, FIG. 6C)", "method": "as §1\n(§4) MM cell lines (MM.1S, H929 and RPMI8226) and drug resistant MM cell lines (RPMI8226/LR5, RPMI8226/DOX40 and RPMI8226/V10R) were treated with anti-MALAT1 oligos for 24 hours. 2×10^4 cells/well were seeded in a 96-well plate with 100 μL medium containing gradient concentration of bortezomib, melphalan or doxorubicin per well. After 72 hours culture, cells were subjected to cell viability assay using CellTilter 96® Aqueous One Solution Cell Proliferation Assay (Promega Corporation), according to the manufacturer's instructions. The half maximal inhibitory concentration (IC50) was calculated by Graphpad Prism V5.0."}, "[7]": {"system": "H929 cells", "test": "Cell viability assay, bortezomib with or without MALAT1 knockdown", "type": "cell-based", "details": "Homo sapiens", "method": "as §1, §4"}, "[8]": {"system": "MM.1S cells", "test": "Cell viability assay, bortezomib with or without MALAT1 knockdown", "type": "cell-based", "details": "Homo sapiens, MM1.S", "method": "as §1, §4"}, "[9]": {"system": "RPMI8226/V10R cells", "test": "Cell viability assay, bortezomib-resistant cells", "type": "cell-based", "details": "Homo sapiens, RPMI-8226, 72 h", "method": "(§5) For the drug resistant cells, RPMI8226/DOX40, RPMI8226/LR5 and RPMI8226/V10R cells were transfected with 1 nM control or anti-MALAT1 oligos separately for 24 hours and treated with a gradient concentration of doxorubicin for RPMI8226/DOX40, or melphalan for RPMI8226/LR5, or bortezomib for RPMI8226/V10R for 72 hours. Cell were subjected to qRT-PCR, proliferation and apoptosis assays.\nas §4"}, "[10]": {"system": "RPMI8226/DOX40 cells", "test": "Cell viability assay, doxorubicin-resistant cells", "type": "cell-based", "details": "Homo sapiens, RPMI-8226, 72 h", "method": "as §5, §4"}, "[11]": {"system": "RPMI8226/LR5 cells", "test": "Cell viability assay, melphalan-resistant cells", "type": "cell-based", "details": "Homo sapiens, RPMI-8226, 72 h", "method": "as §5, §4"}, "[12]": {"details": "transfected with 1 nM anti-MALAT1, 72 hours"}}, "note": "d = 2'-deoxy (DNA); m = 2'-O-methyl", "data": [{"compound": "5′-mC*mG*mA*mA*mA*C*A*T*T*G*G*C*A*C*A*mC*mA*mG*mC*mA-3′ (antisense CGAAACATTGGCACACAGCA; sugars from the 5' end m5 d10 m5, all phosphorothioate, methylation of C not given here) [anti-MALAT1-1]", "values": [{"measurement": "frequency of DNA break (γH2A.X)", "setting": "[1]", "result": "increased substantially"}, {"measurement": "MALAT1 level (qRT-PCR)", "setting": "[2]", "result": "efficiently knocked-down"}]}, {"compound": "5′-mG*mG*mC*mA*mU*A*T*G*C*A*G*A*T*A*A*mU*mG*mU*mU*mC-3′ (antisense GGCAUATGCAGATAAUGUUC; sugars from the 5' end m5 d10 m5, all phosphorothioate, methylation of C not given here) [anti-MALAT1-2]", "values": [{"measurement": "frequency of DNA break (γH2A.X)", "setting": "[1]", "result": "increased substantially"}, {"measurement": "MALAT1 level (qRT-PCR)", "setting": "[2]", "result": "efficiently knocked-down"}]}, {"compound": "C[C@]1(c2nc3c(C(N)=O)cccc3[nH]2)CCCN1", "note": "[ABT888]", "values": [{"measurement": "PAR signal", "setting": "[3]; H929 and MM.1S, treated synchronously with anti-MALAT1 and ABT888", "result": "dose-dependent decreased"}, {"measurement": "level of γH2A.X, cleaved PARP1, and cleaved caspase-3", "setting": "[3]; combination treatment anti-MALAT1 and ABT888", "result": "significantly increased"}]}, {"compound": "CC(C)C[C@H](NC(=O)[C@H](Cc1ccccc1)NC(=O)c1cnccn1)B(O)O", "note": "[bortezomib]", "values": [{"measurement": "expression of BRCA1 and BRCA2", "setting": "[4]", "result": "dramatically down-regulated"}, {"measurement": "γH2A.X signals and apoptosis ratio", "setting": "[5]", "result": "increased"}, {"measurement": "IC50", "setting": "[6]; control", "result": 10.1, "unit": "nM"}, {"measurement": "IC50", "setting": "[6]; transfected with 1 nM anti-MALAT1", "result": 8.2, "unit": "nM"}, {"measurement": "IC50", "setting": "[7]; NCI-H929, H929 cells transfected with 1 nM anti-MALAT1", "result": 3.6, "unit": "nM"}, {"measurement": "IC50", "setting": "[7]; NCI-H929, H929 cells, control (before MALAT1 knockdown)", "result": 4.9, "unit": "nM"}, {"measurement": "IC50", "setting": "[8]; MM.1S cells transfected with 1 nM anti-MALAT1", "result": 6.6, "unit": "nM"}, {"measurement": "IC50", "setting": "[8]; MM.1S cells, control (before MALAT1 knockdown)", "result": 8.9, "unit": "nM"}, {"measurement": "IC50", "setting": "[9]; control oligos, 72 hours", "result": 194, "unit": "nM"}, {"measurement": "IC50", "setting": "[9]; [12]", "result": 144, "unit": "nM"}]}, {"compound": "COc1cccc2c1C(=O)c1c(O)c3c(c(O)c1C2=O)C[C@@](O)(C(=O)CO)C[C@@H]3O[C@H]1C[C@H](N)[C@H](O)[C@H](C)O1", "note": "[doxorubicin]", "values": [{"measurement": "IC50", "setting": "[10]; control oligos, 72 hours", "result": 2460, "unit": "nM"}, {"measurement": "IC50", "setting": "[10]; [12]", "result": 1480, "unit": "nM"}]}, {"compound": "N[C@@H](Cc1ccc(N(CCCl)CCCl)cc1)C(=O)O", "note": "[melphalan]", "values": [{"measurement": "IC50", "setting": "[11]; control oligos, 72 hours", "result": 53400, "unit": "nM"}, {"measurement": "IC50", "setting": "[11]; [12]", "result": 34000, "unit": "nM"}]}]}
